“Also recorded” adds a separate entry of the source. Like-named read-outs stand apart in the source and are kept apart here.

For orientation: LD50 means the dose expected to kill half of the subjects tested. A higher LD50 goes with a less toxic substance. The term ED50 denotes the dose that gives a 50% effect, or the effect in half of the subjects. For orientation: inhibition means the share of the control response that was lost under treatment. Low readings indicate a response near the control, high ones a response far below the control.

One series can be described thus: Acute toxicity test. As to conditions: mouse, in vivo, ip. On the procedure:
CD #1 mice (20-30 g) are used for this test. The animals are individualy housed in glass beakers for a 2 hour period of acclimatization without food and water.

The subject of series [1] is aggressive behavior of combative mice. The series can be described thus: Persistence of antiaggressive effect. The series is classed as in vivo. As to conditions: 10 mg/kg i.p. daily for five days, FIG. 3. From the text:
12. Persistence of Antiaggressive Effect

Series [2] deals with spontaneous motor activity in mice. The series can be described thus: Inhibition of spontaneous motor activity in mice. In kind it is in vivo, CD #1 mice. As to conditions: for ED50: Mus musculus, ip, 0.5 h, i.p., 30 minutes. On the procedure:
4. Inhibition of Spontaneous Motor Activity in Mice
Female CD #1 mice (20-30 g) are used for this experiment. The effect of the compound to be studied on spontaneous activity was evaluated by an automated […] XYZ system. This system allows the simultaneous quantification of the following parameters:
number of stereotypic movements;
number of vertical movements;
number of clockwise revolutions; and
number of counterclockwise revolutions.
Two animals are studied simultaneously, one treated and one control. After a 2 hour period of acclimatization to the room, a first activity count of 10 minutes duration is perfomed. The compound to be studied is then administered i.p. and the spontaneous activity is reevaluated 30 minutes later over a period of 10 minutes.

Series [3] is described as follows: Vapor pressure at room temperature. The series is classed as physicochemical. As to conditions: free base.
The test system of series [4] is aggressive behavior in combative mice. Kind of series: Inhibition of aggressive behavior in combative mice at various times (correlation with plasma concentration). The series is classed as in vivo. The settings on record: 10 mg/kg i.p.; for inhibition at 10 mg/kg: Mus musculus, ip. On the procedure: The mice are placed together, in pairs, for 5 minutes. This pairing is performed 10, 25, 55, 85 and 115 minutes after the administration of compound N^o 3. One minute after each of the 5 minute periods of placing the animals together, three pairs of animals are anesthetized with ether and guillotined in order to determine the concentration of compound N^o 3 in the plasma. The plasma sample is prepared by centrifugation (16,000 G) of 800 μl of blood to which 50 μl of EDTA Na4 (0.1M) is added. The inhibition of aggressive behavior at the different times in which the animals are placed together and the number of pairs evaluated is shown in the following Table: […]

Regarding `C#CC(C)N` (stereo not shown) [Compound 3, 2-Amino-3-butyne], the LD50 in the series “Acute toxicity test” is 1370 mg/kg. The “persistence of inhibitory effect on aggressive behavior (in words)” value in series [1] is “also persists when the compound is administered on a daily basis”. The “inhibition of spontaneous motor activity (in words)” value in series [2] is listed as “more active than buspirone in mice”. The ED50 in series [2] (read-out: ED50, clockwise revolutions) was determined as 3.3 ± 1.6 mg/kg; in series [2] (read-out: ED50, counterclockwise revolutions), 2.7 ± 1.9 mg/kg; in series [2] (read-out: ED50, horizontal activity), 4.3 ± 2.2 mg/kg; in series [2] (read-out: ED50, movement time) it was 8.1 ± 4.5 mg/kg; in series [2] (read-out: ED50, number of movements), 11.8 ± 5.9 mg/kg; in series [2] (read-out: ED50, number of stereotypic movements) it was 5.5 ± 2.2 mg/kg. The ED50 stood at 3.8 ± 1.6 mg/kg in series [2] (read-out: ED50, stereotypy time); 5.5 ± 3.4 mg/kg in series [2] (read-out: ED50, total distance); 2.5 ± 1.2 mg/kg in series [2] (read-out: ED50, vertical activity); 3.2 ± 1.6 mg/kg in series [2] (read-out: ED50, vertical movements); 2.6 ± 1.5 mg/kg in series [2] (read-out: ED50, vertical time). Moreover, the “vapor pressure (in words)” value in series [3] was “high vapor pressure at room temperature”. The “antiaggressive activity over time (in words)” value in series [4] is recorded as “noticeable activity after a few minutes; also recorded: activity is maximal when the plasma concentration is no longer detectable”. Moreover, the “time of maximum antiaggressive activity” value in series [4] is 60 min. Also, the inhibition at 10 mg/kg in series [4] (0.5 h, 30 min, 12 pairs) was 87.5%; in series [4] (1 h, 60 min, 9 pairs), 100%; in series [4] (1.5 h, 90 min, 3 pairs), 100%; in series [4] (2 h, 120 min, 3 pairs) it was 100%; in series [4] (15 min, 15 pairs) it was 75%.

Values taken from patent publication US5436273A, “Psychoactive propargylamine derivatives used in the treatment of anxiety, psychotic states or aggression” (Lowchol Scientific, Inc., priority 1993, dated 1995).
